One data set concerns the target Cathepsin B (Homo sapiens, UniProt P07858). Put plainly: Inhibition of 10 uM Cbz-Phe-Arg-AMC binding to human cathepsin B in fluorescence assay.
A short description of data set [1]: Equilibrium solubility in fasted state-simulated intestinal fluid was determined […]. Conditions: read-out: FS-SIF. The data set is classed as ADME, Rattus norvegicus.
The next data set has as its target Cathepsin S (Homo sapiens, UniProt P25774). In words: Inhibition of 10 uM Cbz-Val-Val-Arg-AMC binding to human cathepsin S in fluorescence assay.
Data set [2] has as its target T1, Cathepsin (L and K) (Homo sapiens) (UniProt P43235+P07711). In words: (§1) Relative binding to human cathepsins L and K. The data set is classed as protein assay.
A short description of data set [3]: Apparent permeability coefficient for apical to basolateral flux was determined by Madin-Darby canine kidney cell monolayer transport assay. It counts as ADME, cell-based, Canis lupus familiaris. To be noted: dog, MDCK.
The nature of data set [4]: Total clearance in rats. Conditions: rat, in vivo. The data set is classed as ADME, organism-based.
In a further data set the target is Procathepsin L (Homo sapiens, UniProt P07711). Put plainly: Inhibition of 5 uM Cbz-Phe-Arg-AMC human cathepsin L in fluorescence assay.
Chain of Procathepsin L (P07711 whole entry): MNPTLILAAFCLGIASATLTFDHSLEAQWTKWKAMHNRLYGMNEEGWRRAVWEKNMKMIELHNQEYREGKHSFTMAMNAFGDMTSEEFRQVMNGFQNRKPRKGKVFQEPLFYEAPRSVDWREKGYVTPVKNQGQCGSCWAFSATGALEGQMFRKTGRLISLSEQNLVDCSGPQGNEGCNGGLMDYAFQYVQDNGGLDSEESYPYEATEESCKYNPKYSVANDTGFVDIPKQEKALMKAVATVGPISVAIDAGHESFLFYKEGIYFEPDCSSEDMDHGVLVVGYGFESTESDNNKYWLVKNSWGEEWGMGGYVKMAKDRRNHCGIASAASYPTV
Data set [5] concerns the target T1, Cathepsin (L and K) (Homo sapiens). Described as §1. The data set is classed as protein assay. This is another data set of the same source.
A short description of data set [6]: Terminal half-life was determined in rats upon intravenous administration as a solution in 30% hydroxypropyl-beta-cyclodextrin, pH = 5.1. The data set is classed as ADME, organism-based. Conditions: rat, in vivo.
For a further data set, the target named is T2, Pro-cathepsin H (Homo sapiens, UniProt P09668).
T2 sequence (P09668 whole entry): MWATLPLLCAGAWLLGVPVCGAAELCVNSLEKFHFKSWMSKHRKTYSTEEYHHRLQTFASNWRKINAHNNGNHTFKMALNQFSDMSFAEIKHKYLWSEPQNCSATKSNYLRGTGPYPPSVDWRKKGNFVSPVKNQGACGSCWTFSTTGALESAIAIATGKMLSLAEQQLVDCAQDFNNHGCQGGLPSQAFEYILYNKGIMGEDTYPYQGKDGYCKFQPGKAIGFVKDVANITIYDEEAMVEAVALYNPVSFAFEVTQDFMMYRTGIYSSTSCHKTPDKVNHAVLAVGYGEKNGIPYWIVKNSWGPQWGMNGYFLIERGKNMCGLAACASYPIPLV
Put plainly: Inhibition of 50 uM L-Arg-beta-naphthalamide binding to human cathepsin H in fluorescence assay.

In another data set the target is T3, Cathepsin K (Homo sapiens, UniProt P43235).
T3 sequence (P43235 whole entry): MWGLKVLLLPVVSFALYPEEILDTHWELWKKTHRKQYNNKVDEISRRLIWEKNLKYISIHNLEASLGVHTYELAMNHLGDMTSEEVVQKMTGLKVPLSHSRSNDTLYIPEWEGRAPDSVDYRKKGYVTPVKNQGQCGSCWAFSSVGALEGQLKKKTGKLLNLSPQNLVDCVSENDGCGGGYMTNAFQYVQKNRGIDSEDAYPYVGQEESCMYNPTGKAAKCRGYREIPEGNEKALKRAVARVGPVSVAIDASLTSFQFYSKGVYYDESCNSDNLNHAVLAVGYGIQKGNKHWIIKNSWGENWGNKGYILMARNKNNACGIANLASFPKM
Put plainly: Inhibition of 10 uM Cbz-Phe-Arg-AMC binding to human cathepsin K in fluorescence assay.

The nature of data set [7]: Oral bioavailability in rat. The data set is classed as ADME, organism-based. Conditions: in vivo.
In data set [8] the target is T4, Pro-cathepsin H (Homo sapiens) (UniProt P09668).
T4 sequence (whole entry): T2 sequence (P09668 whole entry)
Put plainly: Relative binding to human cathepsins H and K.

In data set [9] the target is Cathepsin (S and K) (Homo sapiens) (UniProt P25774+P43235). Put plainly: Relative binding to human cathepsins S and K. The data set is classed as protein assay.
Data set [10] addresses Cathepsin (H and K) (Homo sapiens) (UniProt P09668+P43235). In words: Relative binding affinity for human cathepsins H and K. It counts as protein assay.
A short description of data set [11]: Steady state volume of distribution in rats. Conditions: rat, in vivo; read-out: Vss. It counts as ADME, organism-based.
The nature of data set [12]: Terminal half-life was determined in rats upon intravenous administration as a solution in 40% hydroxypropyl-beta-cyclodextrin, pH = 5.1. The data set is classed as ADME, organism-based. Conditions: rat, in vivo.
A short description of data set [13]: Terminal half-life was determined in rats upon intravenous administration as a solution in 30% hydroxypropyl-beta-cyclodextrin, pH = 3.5. The data set is classed as ADME, organism-based. Conditions: rat, in vivo.

Values after ≈ are worked out from the molar mass of the structure shown.

Chain of Cathepsin S (P25774 whole entry): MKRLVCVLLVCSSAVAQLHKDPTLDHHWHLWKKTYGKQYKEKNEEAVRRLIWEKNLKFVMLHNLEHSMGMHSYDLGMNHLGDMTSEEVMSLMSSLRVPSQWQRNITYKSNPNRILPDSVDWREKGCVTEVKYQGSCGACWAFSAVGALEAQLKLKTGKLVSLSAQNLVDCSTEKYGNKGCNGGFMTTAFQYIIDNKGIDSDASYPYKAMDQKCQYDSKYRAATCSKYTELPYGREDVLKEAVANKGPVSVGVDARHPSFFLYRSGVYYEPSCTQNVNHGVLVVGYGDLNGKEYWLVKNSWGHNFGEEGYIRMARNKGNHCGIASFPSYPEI
T1 sequence (P07711 whole entry, looked up, one chain of several): as the sequence (P07711 whole entry) above

With `CCCC[C@H](NC(=O)OCC1(Cc2ccc(F)cc2)CCC1)C(=O)C(=O)Nc1ccn[nH]1`, the IC50 on Cathepsin B was > 0.5 µM; on Cathepsin S it was 0.0052 µM; against Procathepsin L, 0.33 µM; on Pro-cathepsin H it was > 0.5 µM; at Cathepsin K it was 0.00083 µM. Moreover, the solubility thermodynamic in data set [1] was 0.15 mg/mL (≈ 337 µM). The Ratio in data set [2] is > 600; in [5], 390; in data set [8], > 600; in data set [9] it was 6.3. The Papp A→B in data set [3] turned out to be 150 nm/s. In [4], this molecule displayed a clearance of 2.7 L/h/kg. In data set [6], this molecule returned a half-life of 2 h. The molecule also gave a bioavailability in data set [7] of 31%.

Consider `CCCC[C@H](NC(=O)OC1(Cc2ccccc2)CCCCC1)C(=O)C(=O)N[C@H](C)c1ccccc1`, for which, on Cathepsin K, the IC50 came out at 0.21 µM.

In the case of `CCCC[C@H](NC(=O)OCC(C)(C)Cc1ccccc1)C(=O)C(=O)N[C@H](C)c1ccccc1`, the IC50 at Cathepsin B was > 5 µM; at Cathepsin S, 0.02 µM; on Procathepsin L, 1.2 µM; on Pro-cathepsin H it was > 5 µM; at Cathepsin K, 0.013 µM. Moreover, the Ratio is 92 in [2], > 380 in [10], > 380 in [8] and 1.5 in data set [9].

Take `CCCC[C@H](NC(=O)OCC(C)(C)c1ccccc1)C(=O)C(=O)N[C@H](C)c1ccccc1`: the IC50 on Cathepsin B is 5 µM; at Cathepsin S, 0.27 µM; against Procathepsin L, 3 µM; at Pro-cathepsin H, > 5 µM; on Cathepsin K, 0.065 µM. Moreover, the results for the Ratio in data set [2], in data set [10] and in [9] were 46, > 77 and 4.2, respectively.

With `CCCC[C@H](NC(=O)OCC1(Cc2ccccc2)CCC1)C(=O)C(=O)N[C@H](C)c1ccccc1`, the IC50 is 3.6 µM at Cathepsin B; 0.02 µM at Cathepsin S; 1.3 µM on Procathepsin L; > 5 µM at Pro-cathepsin H; 0.0085 µM at Cathepsin K. The Ratio in [2] is 150; in [10], > 580; in data set [8] it was > 580; in [9] it was 2.4.

`CCCC[C@H](NC(=O)OC1(Cc2ccccc2)CCC1)C(=O)C(=O)N[C@H](C)c1ccccc1`: on Cathepsin K, the IC50 was 0.71 µM.

For `CCCC[C@H](NC(=O)OC1(Cc2ccccc2)CCCC1)C(=O)C(=O)N[C@H](C)c1ccccc1`, the IC50 on Cathepsin B is > 12 µM; on Cathepsin S, 0.43 µM; at Procathepsin L it was 3 µM; at Pro-cathepsin H it was > 12 µM; at Cathepsin K, 0.025 µM. For the same molecule, the Ratio is 120 in [2], > 480 in data set [10] and 17 in data set [9].

Regarding `CCCC[C@H](NC(=O)OCC1(CCCc2ccccc2)CCC1)C(=O)C(=O)N[C@H](C)c1ccccc1`, the IC50 on Cathepsin B is > 2 µM; on Cathepsin S, 0.017 µM; at Procathepsin L, 1.3 µM; on Pro-cathepsin H it was > 2 µM; at Cathepsin K, 0.017 µM. Moreover, the Ratio in data set [2] is > 120; in [5], 76; in data set [8], > 120; in data set [9] it was 1.

As for `CCCC[C@H](NC(=O)OCC1(Cc2ccccc2)CCCC1)C(=O)C(=O)N[C@H](C)c1ccccc1`, the IC50 at Cathepsin B is > 5 µM; at Cathepsin S, 0.011 µM; on Procathepsin L it was 2.2 µM; at Pro-cathepsin H, > 5 µM; at Cathepsin K, 0.026 µM. Also, the Ratio in data set [2] is 85; in data set [10], > 190; in [8], > 190; in [9], 0.4.

Turning to `CCCC[C@H](NC(=O)OC(C)(C)Cc1ccccc1)C(=O)C(=O)N[C@H](C)c1ccccc1`, the IC50 at Cathepsin K was found to be 0.63 µM.

As for `CCCC[C@H](NC(=O)OC(CC)(CC)Cc1ccccc1)C(=O)C(=O)N[C@H](C)c1ccccc1`, the IC50 on Cathepsin K was 0.15 µM.

`CCCC[C@H](NC(=O)OCC1(CCc2ccccc2)CCC1)C(=O)C(=O)N[C@H](C)c1ccccc1`: the IC50 on Cathepsin B is > 2 µM; on Cathepsin S it was 0.034 µM; on Procathepsin L, 1.6 µM; at Pro-cathepsin H it was > 2 µM; at Cathepsin K, 0.024 µM. Moreover, the Ratio is 67 in [2], > 83 in data set [10] and 1.4 in data set [9].

Turning to `CNC(=O)NCCCC[C@H](NC(=O)OCC1(Cc2c(F)cccc2F)CCC1)C(=O)C(=O)N[C@H](C)c1ccccc1`, in data set [1], the solubility thermodynamic is 0.02 mg/mL (≈ 34.9 µM). Besides, in [11], the Vd amounted to 1.6 L/kg. Besides, the Papp A→B in data set [3] stood at 140 nm/s. In addition, the clearance in data set [4] is 1.98 L/h/kg. Moreover, the half-life in data set [6] was 1.57 h. In addition, at Cathepsin K, the IC50 stood at 0.024 µM. Also, in [7], the bioavailability was determined as 15%.

Turning to `C[C@@H](NC(=O)C(=O)[C@H](CCCCNC(=O)N1CCOCC1)NC(=O)OCC1(Cc2ccncc2)CCC1)c1ccccc1`, the solubility thermodynamic in [1] is 0.3 mg/mL (≈ 505 µM). Moreover, the Vd in [11] turned out to be 0.66 L/kg. Besides, the Papp A→B in data set [3] is 14 nm/s. This molecule also yielded a clearance in data set [4] of 1.62 L/h/kg. On Cathepsin K, the IC50 was 0.0076 µM. Further, the bioavailability in [7] came out at 8.1%. In addition, in data set [12], the half-life was 1.23 h.

Regarding `C[C@@H](NC(=O)C(=O)[C@H](CCCCNC(=O)N1CCOCC1)NC(=O)OCC1(Cc2ccc(F)cc2)CCC1)c1ccccc1`, the IC50 at Cathepsin B was > 5 µM; at Cathepsin S, 0.027 µM; on Procathepsin L it was 0.68 µM; at Pro-cathepsin H, > 5 µM; on Cathepsin K it was 0.013 µM. In addition, in [1], the solubility thermodynamic is 0.09 mg/mL (≈ 147 µM). Further, in data set [11], the Vd stood at 4.2 L/kg. Further, the Papp A→B in [3] is 470 nm/s. This molecule showed a clearance in data set [4] of 2.58 L/h/kg. The same molecule yielded a bioavailability in data set [7] of 38%. Moreover, the half-life in data set [12] turned out to be 1.83 h. Also, the Ratio in data set [9] was 2.1.

Consider `CN(C)S(=O)(=O)NCCCC[C@H](NC(=O)OCC1(Cc2ccc(F)cc2)CCC1)C(=O)C(=O)NCc1cccnc1`, for which the IC50 at Cathepsin B is > 5 µM; on Cathepsin S, 0.13 µM; against Procathepsin L it was > 5 µM; on Pro-cathepsin H it was > 5 µM; on Cathepsin K, 0.04 µM. For the same molecule, the solubility thermodynamic in [1] is 0.03 mg/mL (≈ 50.7 µM). For the same molecule, the Vd in [11] stood at 0.42 L/kg. Besides, the Ratio in data set [2] was > 120; in [5], > 120; in data set [8], > 120; in data set [9], 3.2. Besides, in [3], the Papp A→B turned out to be 69 nm/s. In [4], this molecule gave a clearance of 0.576 L/h/kg. The molecule further came in with a bioavailability in data set [7] of 18%. Besides, in data set [13], the half-life is 4.5 h.

The values are drawn from ChEMBL document CHEMBL1137872, “Potent and selective P2-P3 ketoamide inhibitors of cathepsin K with good pharmacokinetic properties via favorable P1', P1, and/or P3 substitutions” (Bioorg Med Chem Lett, 2004).
